Experimental data taken from PMC12408367 (2025).

Assays:
[1] = test system: mutant (mut) 5′UTR of KDM5C mRNA (RNA, mRNA element) UGGCGUGGGCUGCGGUACGACGGCCACACGCC; experiment: microscale thermophoresis (Monolith NT.115); settings: DEPC water; RNA stock 40 nM; 1 mM putrescine stock (highest), 16-step 1:2 dilution
[2] = test system: wild-type (WT) 5′UTR of KDM5C mRNA (RNA, mRNA element) UGGCGAAGGCUGCGGUACGACGGCCACACGCC; experiment: microscale thermophoresis (Monolith NT.115); settings: DEPC water; RNA stock 40 nM; 1 mM putrescine stock, 16-step 1:2 dilution; 4PL sigmoidal fit

In the case of `NCCCCN`, the binding [1] is reported as “no” and the Kd [2] is reported as 52.3 µM.
